Literature values, collected in patent publication US8410113B2, “(2R)-1-(3-chloro-2-pyrazinyl)-2-methylpiperazine and salts thereof” (Biovitrum AB (publ), priority 2002, dated 2013).

Assays:
5-HT2c receptor [1] = biological target: T1, 5-HT2c receptor (Mus musculus, UniProt P34968); settings: mice that express the normal 5-HT2c receptor; cited from earlier work
T1 construct: mice that express the normal 5-HT2c receptor; host or cells: mice (whole animal)
T1 sequence (P34968 33-459): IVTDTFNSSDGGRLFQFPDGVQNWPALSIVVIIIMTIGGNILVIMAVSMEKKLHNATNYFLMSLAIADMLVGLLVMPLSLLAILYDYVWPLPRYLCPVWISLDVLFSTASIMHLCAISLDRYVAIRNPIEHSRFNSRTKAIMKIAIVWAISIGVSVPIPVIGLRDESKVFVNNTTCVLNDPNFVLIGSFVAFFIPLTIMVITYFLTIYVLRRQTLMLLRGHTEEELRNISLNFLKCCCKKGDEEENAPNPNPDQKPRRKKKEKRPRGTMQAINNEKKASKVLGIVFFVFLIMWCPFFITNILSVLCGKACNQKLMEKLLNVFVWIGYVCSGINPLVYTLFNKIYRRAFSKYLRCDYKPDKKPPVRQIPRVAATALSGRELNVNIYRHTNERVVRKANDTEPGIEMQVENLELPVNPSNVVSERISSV

5-HT2c receptor [2] = settings: mice expressing the mutated inactive form of the 5-HT2c receptor; cited from earlier work
[3] = obese subjects, after 2 weeks of treatment; cited from earlier work

Clc1cccc(N2CCNCC2)c1 [mCPP, m-chlorophenylpiperazine]
weight loss (5-HT2c receptor [1]): causes weight loss | weight loss (5-HT2c receptor [2]): lacks activity | body weight [3]: slight but sustained reduction in body weight
